Measurements published in patent US10577368B2 (The United States of America, as represented by the …, priority 2013, dated 2020).
Read-outs that look alike come from different tables or passages of the source.

What was measured:
α1D adrenergic receptor = α1D adrenergic receptor (Homo sapiens (Human), UniProt P25100); assay: Off-target binding, α1D
Source text: (§1) The results are set forth below.

[1] = test system: chronic constriction injury model of neuropathic pain; assay: CCI model of neuropathic pain, reversal of mechano-allodynia; type: in vivo, mice; settings: for Max. effect Emax (% ± SEM) / Time of peak protection / Effect at 3 h (% ± SEM): 3 μmol/kg p.o., mice; for Max. effect Emax (% ± SEM) / Time of peak protection: ipsilateral hind paw; for Efficacy in reversing NP in vivo (of full reversal at peak effect): CCI model
[2] = Stability in liver microsomes, mouse; type: in vitro ADME; settings: for half-life: liver microsomes, read-out: Stability in liver microsomes (t1/2, min): Mouse
[3] = target: Alpha 2C adrenergic receptor (Homo sapiens (Human), UniProt P18825); assay: Off-target binding, α2C; settings: read-out: Ki at α2C
Source text: as §1

mA3AR = mA3AR (Mus musculus (Mouse), UniProt Q61618); assay: Competition binding at mA3AR, HEK293 cell membranes
hA1AR = hA1AR (Homo sapiens (Human), UniProt P30542); assay: Radioligand binding at hA1AR, CHO cell membranes, [3H]R-PIA; settings: for inhibition at 10 µM: read-out: hA1AR % inhibition
human DAT = human DAT (Homo sapiens (Human), UniProt Q01959); assay: Radioligand ([3H]WIN35428) binding at the dopamine transporter; settings: for Ki: off-target binding
hA2AAR = hA2AAR (Homo sapiens (Human), UniProt P29274); assay: Radioligand binding at hA2AAR, HEK293 cell membranes, [3H]CGS21680; settings: read-out: hA2AAR % inhibition
[4] = Stability in liver microsomes, rat; type: in vitro ADME; settings: for half-life: liver microsomes, read-out: Stability in liver microsomes (t1/2, min): Rat
[5] = test system: CYP1A2, CYP2C9, CYP2C19, CYP2D6, CYP3A4; assay: Inhibition of 5 CYP isozymes; type: in vitro ADME; settings: human
mA2AAR = mA2AAR (Mus musculus (Mouse), UniProt Q60613); assay: Competition binding at mA2AAR, HEK293 cell membranes; settings: for inhibition at 10 µM: read-out: A2AAR % inhibition, mouse data (m) (converted)
[6] = Stability in simulated fluids (gastric, intestinal); type: in vitro ADME
Source text: (§2) In vitro stability parameters for selected compounds are set forth in Table 6, in accordance with an embodiment of the invention.

SERT = SERT (Homo sapiens (Human), UniProt P31645); assay: Off-target binding, SERT
Source text: as §1

[7] = test system: muscarinic, adrenergic, dopamine, GABA, histamine, opiate, serotonin receptors and transporters; assay: Off-target binding panel (receptors and transporters of Table 5); settings: for Interactions at other receptors of the off-target panel: 10 μM
Source text: as §1

[8] = Stability in liver microsomes, human; type: in vitro ADME; settings: for half-life: liver microsomes, read-out: Stability in liver microsomes (t1/2, min): Human
[9] = target: Alpha 2A adrenergic receptor (Homo sapiens (Human), UniProt P08913); assay: Off-target binding, α2A
Source text: as §1

[10] = target: Alpha 1B adrenergic receptor (Homo sapiens (Human), UniProt P35368); assay: Off-target binding, α1B
Source text: as §1

mA1AR = mA1AR (Mus musculus (Mouse), UniProt Q60612); assay: Competition binding at mA1AR, HEK293 cell membranes
C57BL/6J mice [11] = assay: Acute liver toxicity, oral gavage; settings: 50 mg/kg oral gavage, 24 h
PBR = PBR (Homo sapiens (Human), UniProt P30536); assay: Off-target binding, PBR; settings: at 10 μM
Source text: as §1

C57BL/6J mice [12] = settings: mouse, in vivo, 50 mg/kg
[13] = Bioavailability / plasma pharmacokinetics; type: in vivo; settings: rat, male SD rats
Description: Male SD rats were dosed intravenously at 1 mg/kg and orally at 1, 3, and 10 mg/kg. Plasma concentration as a function of time is depicted in FIG. 15.

[14] = test system: chronic constriction injury (CCI) model, mechano-allodynia; assay: Morphine analgesic tolerance in CCI model, co-administration with A3AR agonist; type: in vivo, mice
[15] = % Unbound in plasma, mouse; type: in vitro ADME
r Sigma 2 = r Sigma 2 (Rattus norvegicus (Rat), UniProt Q5U3Y7); assay: Off-target binding, Sigma-2
Source text: as §1

r Sigma 1 = r Sigma 1 (Rattus norvegicus (Rat), UniProt Q9R0C9); assay: Off-target binding, Sigma-1
Source text: as §1

Aqueous solubility = type: physicochemical
h5HT2B = h5HT2B (Homo sapiens (Human), UniProt P41595); assay: Off-target binding, 5HT2B; settings: read-out: Ki at 5HT2B
hM4 muscarinic receptor = hM4 muscarinic receptor (Homo sapiens (Human), UniProt P08173); assay: Off-target binding, M4
h5HT6 = h5HT6 (Homo sapiens (Human), UniProt P50406); assay: Off-target binding, 5HT6
5HT2A = assay: Off-target binding, 5HT2A
h5HT7 = h5HT7 (Homo sapiens (Human), UniProt P34969); assay: Off-target binding, 5HT7
hH1 histamine receptor = hH1 histamine receptor (Homo sapiens (Human), UniProt P35367); assay: Off-target binding, H1
hA3AR = hA3AR (Homo sapiens (Human), UniProt P0DMS8); assay: Radioligand binding at hA3AR, CHO cell membranes, [125I]I-AB-MECA
% Unbound in plasma, rat = type: in vitro ADME
[16] = test system: 5 CYP isozymes (1A2, 2C9, 2C19, 2D6, 3A4); assay: Inhibition of 5 CYP isozymes; type: in vitro ADME; settings: read-out: Inhibition of 5 CYP isozymes: IC50
[17] = % Unbound in plasma, human; type: in vitro ADME
[18] = target: Alpha 2B adrenergic receptor (Homo sapiens (Human), UniProt P18089); assay: Off-target binding, α2B; settings: read-out: Ki at α2B
Source text: as §1

hM1 muscarinic receptor = hM1 muscarinic receptor (Homo sapiens (Human), UniProt P11229); assay: Off-target binding, M1
Source text: as §1

CYP 3A4 = CYP 3A4 (Homo sapiens (Human), UniProt P08684); assay: CYP inhibition, 3A4; type: in vitro ADME
Source text: as §2

hM3 muscarinic receptor = hM3 muscarinic receptor (Homo sapiens (Human), UniProt P20309); assay: Off-target binding, M3
[19] = simulated gastric fluid, read-out: Stability in simulated fluids (t1/2, min): Gastric
[20] = simulated intestinal fluid, read-out: Stability in simulated fluids (t1/2, min): Intestinal
[21] = mouse (m), inhibition of binding at 10 μM

Sequence of hA1AR (P30542 whole entry): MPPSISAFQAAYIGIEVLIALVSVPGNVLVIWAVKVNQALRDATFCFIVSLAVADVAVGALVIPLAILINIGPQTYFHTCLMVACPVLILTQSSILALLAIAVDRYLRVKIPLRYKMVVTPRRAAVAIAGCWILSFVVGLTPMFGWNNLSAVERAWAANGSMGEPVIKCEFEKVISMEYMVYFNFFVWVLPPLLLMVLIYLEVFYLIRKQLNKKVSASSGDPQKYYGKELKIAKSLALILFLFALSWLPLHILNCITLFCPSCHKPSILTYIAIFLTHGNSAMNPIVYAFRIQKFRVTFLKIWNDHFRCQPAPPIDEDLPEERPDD
Sequence of human DAT (Q01959 whole entry): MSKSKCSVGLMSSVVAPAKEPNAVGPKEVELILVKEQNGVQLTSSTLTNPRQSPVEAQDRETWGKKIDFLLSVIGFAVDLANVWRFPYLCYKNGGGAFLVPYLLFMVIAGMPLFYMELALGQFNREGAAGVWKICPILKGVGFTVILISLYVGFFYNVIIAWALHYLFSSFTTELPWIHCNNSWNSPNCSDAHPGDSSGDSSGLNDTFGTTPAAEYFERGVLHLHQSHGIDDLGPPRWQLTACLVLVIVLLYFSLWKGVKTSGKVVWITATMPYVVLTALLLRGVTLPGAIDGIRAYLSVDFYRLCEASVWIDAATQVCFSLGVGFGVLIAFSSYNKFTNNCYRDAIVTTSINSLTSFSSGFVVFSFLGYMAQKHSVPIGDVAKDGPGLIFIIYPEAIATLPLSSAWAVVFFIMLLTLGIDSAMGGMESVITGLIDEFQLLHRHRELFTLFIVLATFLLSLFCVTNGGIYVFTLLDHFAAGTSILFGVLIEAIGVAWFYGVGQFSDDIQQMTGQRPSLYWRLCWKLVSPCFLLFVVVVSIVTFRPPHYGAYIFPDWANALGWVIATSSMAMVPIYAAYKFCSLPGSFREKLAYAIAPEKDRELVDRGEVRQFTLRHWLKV
Sequence of mA2AAR (Q60613 whole entry): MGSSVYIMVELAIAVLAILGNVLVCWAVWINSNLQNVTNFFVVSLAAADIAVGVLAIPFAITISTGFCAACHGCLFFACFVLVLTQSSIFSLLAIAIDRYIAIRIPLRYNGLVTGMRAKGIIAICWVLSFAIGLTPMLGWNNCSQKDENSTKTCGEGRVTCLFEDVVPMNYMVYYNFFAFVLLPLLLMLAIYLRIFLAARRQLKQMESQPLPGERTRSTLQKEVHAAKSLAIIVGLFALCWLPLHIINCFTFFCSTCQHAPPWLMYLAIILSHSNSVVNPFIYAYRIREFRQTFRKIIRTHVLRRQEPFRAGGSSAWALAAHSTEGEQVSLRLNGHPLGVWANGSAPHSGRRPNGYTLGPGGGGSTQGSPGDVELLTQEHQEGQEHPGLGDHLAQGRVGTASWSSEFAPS
Sequence of hA2AAR (P29274 whole entry): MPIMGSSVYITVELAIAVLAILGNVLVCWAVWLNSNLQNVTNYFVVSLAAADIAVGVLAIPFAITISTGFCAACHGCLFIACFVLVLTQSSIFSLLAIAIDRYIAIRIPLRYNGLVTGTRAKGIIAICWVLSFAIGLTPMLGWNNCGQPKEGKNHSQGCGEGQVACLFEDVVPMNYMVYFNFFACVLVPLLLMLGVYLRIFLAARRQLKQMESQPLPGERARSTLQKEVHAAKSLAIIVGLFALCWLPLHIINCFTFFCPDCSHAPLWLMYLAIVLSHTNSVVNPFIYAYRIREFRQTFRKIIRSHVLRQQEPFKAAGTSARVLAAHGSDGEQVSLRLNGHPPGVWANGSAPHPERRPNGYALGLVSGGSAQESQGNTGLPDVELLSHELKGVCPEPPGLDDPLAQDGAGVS
Sequence of mA1AR (Q60612 whole entry): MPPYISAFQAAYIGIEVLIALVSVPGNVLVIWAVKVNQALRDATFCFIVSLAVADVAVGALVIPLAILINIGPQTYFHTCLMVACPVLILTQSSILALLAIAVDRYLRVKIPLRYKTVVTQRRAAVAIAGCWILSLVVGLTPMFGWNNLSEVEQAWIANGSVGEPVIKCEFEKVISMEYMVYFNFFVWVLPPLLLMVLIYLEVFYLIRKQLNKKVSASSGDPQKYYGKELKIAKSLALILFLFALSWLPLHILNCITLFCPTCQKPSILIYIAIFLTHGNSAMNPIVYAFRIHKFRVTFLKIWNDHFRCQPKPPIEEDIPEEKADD
Sequence of Alpha 2C adrenergic receptor (P18825 whole entry): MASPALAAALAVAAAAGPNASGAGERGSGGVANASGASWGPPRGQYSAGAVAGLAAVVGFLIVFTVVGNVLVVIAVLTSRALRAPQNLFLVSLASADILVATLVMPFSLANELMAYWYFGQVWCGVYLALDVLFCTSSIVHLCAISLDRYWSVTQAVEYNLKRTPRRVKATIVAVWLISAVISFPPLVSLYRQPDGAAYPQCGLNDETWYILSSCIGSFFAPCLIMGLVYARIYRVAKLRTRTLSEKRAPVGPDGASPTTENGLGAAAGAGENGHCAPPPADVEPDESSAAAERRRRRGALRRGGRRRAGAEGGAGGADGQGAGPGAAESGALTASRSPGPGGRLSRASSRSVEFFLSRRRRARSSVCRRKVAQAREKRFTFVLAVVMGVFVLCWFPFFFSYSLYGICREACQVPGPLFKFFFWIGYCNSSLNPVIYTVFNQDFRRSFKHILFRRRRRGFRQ
Sequence of r Sigma 2 (Q5U3Y7 whole entry): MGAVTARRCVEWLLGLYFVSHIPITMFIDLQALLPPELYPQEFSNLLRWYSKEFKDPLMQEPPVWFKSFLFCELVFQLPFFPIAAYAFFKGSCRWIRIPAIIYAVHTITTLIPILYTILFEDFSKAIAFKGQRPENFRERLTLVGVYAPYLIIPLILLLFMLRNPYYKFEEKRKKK
Sequence of SERT (P31645 whole entry, species assumed): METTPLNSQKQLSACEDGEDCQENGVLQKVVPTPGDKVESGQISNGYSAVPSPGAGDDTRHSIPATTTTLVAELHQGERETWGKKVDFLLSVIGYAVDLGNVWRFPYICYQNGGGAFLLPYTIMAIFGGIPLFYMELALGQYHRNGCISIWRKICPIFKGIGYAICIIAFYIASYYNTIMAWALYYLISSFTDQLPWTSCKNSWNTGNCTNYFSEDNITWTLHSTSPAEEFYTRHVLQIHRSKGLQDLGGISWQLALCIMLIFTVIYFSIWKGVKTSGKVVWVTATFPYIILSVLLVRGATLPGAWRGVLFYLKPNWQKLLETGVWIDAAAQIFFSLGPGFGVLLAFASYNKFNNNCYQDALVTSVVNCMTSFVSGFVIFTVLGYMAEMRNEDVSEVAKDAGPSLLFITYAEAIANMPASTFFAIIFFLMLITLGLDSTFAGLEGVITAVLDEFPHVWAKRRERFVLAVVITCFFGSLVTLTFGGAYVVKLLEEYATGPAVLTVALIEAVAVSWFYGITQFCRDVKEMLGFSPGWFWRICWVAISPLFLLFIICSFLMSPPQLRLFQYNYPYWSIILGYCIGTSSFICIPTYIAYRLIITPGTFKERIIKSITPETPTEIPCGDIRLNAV
Sequence of r Sigma 1 (Q9R0C9 whole entry): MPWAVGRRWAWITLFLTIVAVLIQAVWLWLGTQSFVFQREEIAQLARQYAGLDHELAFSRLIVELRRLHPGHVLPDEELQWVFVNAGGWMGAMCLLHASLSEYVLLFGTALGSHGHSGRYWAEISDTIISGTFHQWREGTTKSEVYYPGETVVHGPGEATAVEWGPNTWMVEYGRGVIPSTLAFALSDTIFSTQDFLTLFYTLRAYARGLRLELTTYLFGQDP
Sequence of mA3AR (Q61618 whole entry): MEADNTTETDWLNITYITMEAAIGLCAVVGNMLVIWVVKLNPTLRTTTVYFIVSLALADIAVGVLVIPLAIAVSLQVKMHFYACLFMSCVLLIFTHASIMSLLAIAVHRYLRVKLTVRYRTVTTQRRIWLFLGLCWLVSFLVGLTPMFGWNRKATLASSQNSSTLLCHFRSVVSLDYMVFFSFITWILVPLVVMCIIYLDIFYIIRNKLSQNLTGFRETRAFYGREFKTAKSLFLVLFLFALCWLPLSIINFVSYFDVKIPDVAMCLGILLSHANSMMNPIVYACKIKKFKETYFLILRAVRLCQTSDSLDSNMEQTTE
Sequence of Alpha 1B adrenergic receptor (P35368 whole entry): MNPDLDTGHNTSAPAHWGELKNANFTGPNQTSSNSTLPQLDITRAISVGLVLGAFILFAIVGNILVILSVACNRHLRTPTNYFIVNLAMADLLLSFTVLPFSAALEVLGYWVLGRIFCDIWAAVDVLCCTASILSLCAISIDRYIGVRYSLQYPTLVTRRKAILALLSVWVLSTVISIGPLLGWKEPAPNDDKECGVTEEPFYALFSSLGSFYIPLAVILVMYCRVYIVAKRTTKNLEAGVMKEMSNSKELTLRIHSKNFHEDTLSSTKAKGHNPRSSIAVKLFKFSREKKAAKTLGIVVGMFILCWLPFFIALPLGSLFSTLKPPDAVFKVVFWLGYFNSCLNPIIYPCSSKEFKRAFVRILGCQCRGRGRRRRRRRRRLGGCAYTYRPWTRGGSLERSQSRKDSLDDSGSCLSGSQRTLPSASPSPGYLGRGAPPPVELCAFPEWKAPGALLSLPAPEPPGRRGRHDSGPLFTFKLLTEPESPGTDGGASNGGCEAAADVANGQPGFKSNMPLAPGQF
Sequence of Alpha 2B adrenergic receptor (P18089 whole entry): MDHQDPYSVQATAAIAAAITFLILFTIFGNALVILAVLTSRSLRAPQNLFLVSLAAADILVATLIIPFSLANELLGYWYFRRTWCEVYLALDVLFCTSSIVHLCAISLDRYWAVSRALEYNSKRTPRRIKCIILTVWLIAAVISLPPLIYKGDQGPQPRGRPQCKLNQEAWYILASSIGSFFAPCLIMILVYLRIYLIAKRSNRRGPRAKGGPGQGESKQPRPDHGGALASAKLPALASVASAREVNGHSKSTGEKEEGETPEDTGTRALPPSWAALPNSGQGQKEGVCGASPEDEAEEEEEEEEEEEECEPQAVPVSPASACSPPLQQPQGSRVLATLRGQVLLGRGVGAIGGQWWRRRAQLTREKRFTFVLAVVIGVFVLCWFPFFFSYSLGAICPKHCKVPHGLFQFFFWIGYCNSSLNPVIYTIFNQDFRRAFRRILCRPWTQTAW

Compound: CNC(=O)[C@@]12C[C@@H]1[C@@H](n1cnc3c(NC)nc(C#Cc4cnccn4)nc31)[C@H](O)[C@@H]2O [Compound 7, (1S,2R,3S,4R,5S)-2,3-Dihydroxy-N-methyl-4-(6-(methylamino)-2-(pyrazin-2-ylethynyl)-9H-purin-9-yl)bicyclo[3.1.0]hexane-1-carboxamide]
- Ki (α1D adrenergic receptor): 4.3 µM
- Max. effect Emax (% ± SEM) [1]: 100 ± 0.0%
- Time of peak protection [1]: 1 h
- Efficacy in reversing NP in vivo (of full reversal at peak effect) [1]: ~100%
- half-life [2]: > 145 min
- Ki [3]: 6.8 µM
- Ki (mA3AR): 0.068 ± 0.005 µM
- inhibition at 10 µM (hA1AR): 37%
- Ki (human DAT; read-out: Ki at DAT): 1.8 µM
- Ki (human DAT; read-out: Ki class at DAT): 1 to 10 µM
- inhibition at 10 µM (hA2AAR): 25 ± 9%
- half-life [4]: > 145 min
- IC50 [5]: > 10 µM
- inhibition at 10 µM (mA2AAR): 12%
- half-life [6, 19]: > 480 min
- half-life [6, 20]: > 480 min
- Ki (SERT; read-out: Ki at SERT): > 10 µM
- Ki (SERT; read-out: Ki class at SERT): > 10 µM
- Off-target effects compared with MRS5698 and MRS5676 [7]: significantly fewer off-target effects
- Interactions at other receptors of the off-target panel [7]: No interactions at other receptors
- half-life [8]: 236 min
- Ki [9]: 7.9 µM
- Ki ([10]; read-out: Ki at α1B): 9.4 µM
- Ki ([10]; read-out: Ki class at α1B): 1 to 10 µM

Compound: CNC(=O)[C@@]12C[C@@H]1[C@@H](n1cnc3c(NC)nc(C#Cc4ccc(Cl)s4)nc31)[C@H](O)[C@@H]2O [Compound 32, (1S,2R,3S,4R,5S)-4-(2-((5-Chlorothiophen-2-yl)ethynyl)-6-(methylamino)-9H-purin-9-yl)-2,3-dihydroxy-N-methylbicyclo[3.1.0]hexane-1-carboxamide]
- Effect at 3 h (% ± SEM) [1]: 83 ± 11%
- Max. effect Emax (% ± SEM) [1]: 93 ± 7%
- Time of peak protection [1]: 0.5 to 3 h
- Efficacy in reversing NP in vivo (of full reversal at peak effect) [1]: ~100%
- inhibition at 10 µM (mA1AR; read-out: A1AR % inhibition, mouse data (m)): 38%
- half-life [2]: 143 min
- GSH and GSSG levels in liver (C57BL/6J mice [11]): no alteration
- Liver histology (C57BL/6J mice [11]): remained normal
- inhibition at 10 µM (PBR): 60 to 70%
- Acute liver toxicity (C57BL/6J mice [12]): no acute liver toxicity
- inhibition at 10 µM (hA1AR): 6%
- Increase of the level of radioligand ([3H]WIN35428) binding at the human DAT (human DAT; 10 μM): 556%
- Enhancement of radioligand binding at the dopamine transporter (human DAT; compound at 10 μM): ~5 ×
- half-life ([13]; iv, i.v. 1 mg/kg): 0.7 ± 0.3 h
- half-life ([13]; po, p.o. 1 mg/kg): 3.6 ± 0.4 h
- Cmax ([13]; po, p.o. 1 mg/kg, read-out: Cmax nM): 63 ± 19 nM
- Cmax ([13]; po, p.o. 1 mg/kg, read-out: Cmax ng/ml): 29 ± 8.6 ng/mL
- half-life ([13]; po, p.o. 3 mg/kg): 5.3 ± 0.8 h
- Cmax ([13]; po, p.o. 3 mg/kg, read-out: Cmax nM): 101 ± 53 nM
- Cmax ([13]; po, p.o. 3 mg/kg, read-out: Cmax ng/ml): 47 ± 24 ng/mL
- half-life ([13]; po, p.o. 10 mg/kg): 7.8 ± 2 h
- Cmax ([13]; po, p.o. 10 mg/kg, read-out: Cmax nM): 711 ± 125 nM
- Cmax ([13]; po, p.o. 10 mg/kg, read-out: Cmax ng/ml): 326 ± 57 ng/mL
- Analgesic effect of the A3AR agonist dose per se ([14]; […]): no analgesic effects per se
- Effect on opioid-induced hypersensitivity and analgesic tolerance ([14]; mouse, in vivo): block opioid-induced hypersensitivity and analgesic tolerance
- inhibition at 10 µM (hA2AAR): 24%
- % Unbound in plasma: Mouse [15]: 6.40%
- half-life [4]: 128 min
- IC50 [5]: > 10 µM
- inhibition at 10 µM (mA2AAR): 7%
- inhibition at 10 µM (r Sigma 2; at 10 μM): 60 to 70%
- Ki (r Sigma 2; off-target binding, read-out: Ki at Sigma-2 (σ2)): 0.63 µM
- inhibition at 10 µM (r Sigma 1; at 10 μM): 60 to 70%
- Ki (r Sigma 1; off-target binding): 1.4 µM
- half-life [6, 19]: > 480 min
- half-life [6, 20]: > 480 min
- Off-target effects compared with MRS5698 and MRS5676 [7]: significantly fewer off-target effects
- Interactions at other receptors of the off-target panel [7]: No interactions
- half-life [8]: 230 min
- Aq. Solubility (pH 7.4, μg/mL) (Aqueous solubility): 16.8 ± 1.1 μg/mL

Compound: (1S,2R,3S,4R,5S)-4-(2-((Ferrocen-yl)ethynyl)-6-(methylamino)-9H-purin-9-yl)-2,3-dihydroxy-N-methylbicyclo[3.1.0]hexane-1-carboxamide [Compound 37]
- Effect at 3 h (% ± SEM) [1]: 78 ± 3%
- Max. effect Emax (% ± SEM) [1]: 94 ± 6%
- Time of peak protection [1]: 0.5 to 3 h
- Efficacy in reversing NP in vivo (of full reversal at peak effect) [1]: ~100%
- Ki (h5HT2B): < 10 µM
- A1AR % inhibition, mouse data (m) (mA1AR; [21]): 45% ± 2%
- Ki (hM4 muscarinic receptor): < 10 µM
- Stability in liver microsomes (t1/2, min): Mouse [2]: 1.98 min
- Ki [3]: < 10 µM
- Ki (h5HT6): < 10 µM
- Ki (mA3AR): 0.00546 ± 0.00067 µM
- hA1AR % inhibition (hA1AR; inhibition of binding at 10 μM): 25 ± 2%
- Ki (5HT2A): < 10 µM
- Ki (h5HT7): < 10 µM
- Ki (hH1 histamine receptor): < 10 µM
- Ki (hA3AR): 0.00268 ± 0.00044 µM
- % Unbound in plasma: Rat (% Unbound in plasma, rat): 6.32%
- % Unbound in plasma: Mouse [15]: 4.85%
- Stability in liver microsomes (t1/2, min): Rat [4]: 6.64 min
- IC50 [16]: > 9 µM
- % Unbound in plasma: Human [17]: 7.00%
- A2AAR % inhibition, mouse data (m) (mA2AAR; [21]): 4% ± 2%
- Ki [18]: < 10 µM
- Stability in simulated fluids (t1/2, min): Gastric ([6]; simulated gastric fluid): 46.5 min
- Stability in simulated fluids (t1/2, min): Intestinal ([6]; simulated intestinal fluid): 174 min
- Ki (hM1 muscarinic receptor): < 10 µM
- Off-target effects compared with MRS5698 and MRS5676 [7]: significantly fewer off-target effects
- Interactions at other receptors of the off-target panel [7]: No significant interactions
- IC50 (CYP 3A4): 9.4 µM
- Stability in liver microsomes (t1/2, min): Human [8]: 3.66 min
- Ki (hM3 muscarinic receptor): < 10 µM
- Aq. Solubility (pH 7.4, μg/mL) (Aqueous solubility): 14.5 ± 1.0 μg/mL
